In publication PMC10104807, “Modulation of tau tubulin kinases (TTBK1 and TTBK2) impacts ciliogenesis” (Scientific Reports, 2023):

Key:
Assay in all cases: DiscoverX scanMAX binding assay
CIT = molecular target: T1, CIT (Homo sapiens, UniProt O14578); conditions: 1 μM
T1 construct: purchased Eurofins (radiometric) / Eurofins DiscoverX scanMAX / Reaction Biology / SignalChem
Source text: (§1) This panel includes 403 wild-type (WT) human kinases but not TTBK1/2. […] Substantial overlap between the MRC and DiscoverX scanMAX kinase panels allows the comparison of results for the same kinases in two different assay formats (enzymatic versus binding, respectively) at the same concentration. Selectivity results are included in two columns within Table 1. […] The rightmost column converts this selectivity score into the number of kinases with a PoC < 10 in the scanMAX panel.
(§2) The Eurofins DiscoverX Corporation scanMAX assay platform was employed to assess the selectivity of specific analogs at a single concentration (1 µM). As described previously, this assay platform profiles a compound against 403 wild-type human kinases and delivers percent of control (PoC) values. These percent of control values are included in Table 1 and corresponding kinome tree diagrams as well as tables for each analog included in Fig. S1.

TAOK2 = molecular target: T2, TAOK2 (Homo sapiens, UniProt Q9UL54); conditions: 1 μM
T2 construct: purchased Eurofins
T2 sequence (Q9UL54 1-1235): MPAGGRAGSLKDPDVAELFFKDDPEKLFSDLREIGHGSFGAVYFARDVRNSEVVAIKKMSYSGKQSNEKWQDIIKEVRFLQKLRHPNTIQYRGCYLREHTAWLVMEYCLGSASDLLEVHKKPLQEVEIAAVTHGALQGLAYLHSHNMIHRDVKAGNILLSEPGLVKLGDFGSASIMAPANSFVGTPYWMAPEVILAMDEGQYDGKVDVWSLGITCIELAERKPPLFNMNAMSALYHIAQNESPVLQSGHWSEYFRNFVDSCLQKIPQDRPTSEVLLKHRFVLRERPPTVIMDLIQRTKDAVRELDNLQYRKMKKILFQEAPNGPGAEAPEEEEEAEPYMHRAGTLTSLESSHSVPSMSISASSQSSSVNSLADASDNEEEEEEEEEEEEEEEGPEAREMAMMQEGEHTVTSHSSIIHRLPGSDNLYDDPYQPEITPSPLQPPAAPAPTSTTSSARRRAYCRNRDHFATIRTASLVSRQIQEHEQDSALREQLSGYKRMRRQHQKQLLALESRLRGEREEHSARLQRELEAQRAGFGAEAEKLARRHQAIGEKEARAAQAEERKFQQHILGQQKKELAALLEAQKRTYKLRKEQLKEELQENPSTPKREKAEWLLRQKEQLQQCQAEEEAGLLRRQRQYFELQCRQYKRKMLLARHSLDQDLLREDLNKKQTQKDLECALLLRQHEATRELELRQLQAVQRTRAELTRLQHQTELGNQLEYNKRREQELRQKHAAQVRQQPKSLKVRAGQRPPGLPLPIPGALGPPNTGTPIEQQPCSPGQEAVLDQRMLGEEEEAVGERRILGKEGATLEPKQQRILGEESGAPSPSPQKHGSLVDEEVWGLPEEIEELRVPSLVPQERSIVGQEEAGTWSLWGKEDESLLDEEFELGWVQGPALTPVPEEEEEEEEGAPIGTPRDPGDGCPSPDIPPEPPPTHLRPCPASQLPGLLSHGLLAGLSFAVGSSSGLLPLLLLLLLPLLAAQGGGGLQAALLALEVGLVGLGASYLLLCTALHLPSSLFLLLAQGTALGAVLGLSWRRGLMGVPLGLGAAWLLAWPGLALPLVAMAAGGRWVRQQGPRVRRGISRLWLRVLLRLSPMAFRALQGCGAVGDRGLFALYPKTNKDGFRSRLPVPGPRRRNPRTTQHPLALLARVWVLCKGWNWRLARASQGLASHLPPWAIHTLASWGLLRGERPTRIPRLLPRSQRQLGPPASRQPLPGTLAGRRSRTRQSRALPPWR
Source text: as §1, §2

TAOK3 = molecular target: T3, TAOK3 (Homo sapiens, UniProt Q9H2K8); conditions: for TAOK3 % control at 1000nM: 1 μM
T3 construct: purchased Eurofins (radiometric) / Eurofins DiscoverX scanMAX / Reaction Biology / SignalChem
T3 sequence (Q9H2K8 1-898): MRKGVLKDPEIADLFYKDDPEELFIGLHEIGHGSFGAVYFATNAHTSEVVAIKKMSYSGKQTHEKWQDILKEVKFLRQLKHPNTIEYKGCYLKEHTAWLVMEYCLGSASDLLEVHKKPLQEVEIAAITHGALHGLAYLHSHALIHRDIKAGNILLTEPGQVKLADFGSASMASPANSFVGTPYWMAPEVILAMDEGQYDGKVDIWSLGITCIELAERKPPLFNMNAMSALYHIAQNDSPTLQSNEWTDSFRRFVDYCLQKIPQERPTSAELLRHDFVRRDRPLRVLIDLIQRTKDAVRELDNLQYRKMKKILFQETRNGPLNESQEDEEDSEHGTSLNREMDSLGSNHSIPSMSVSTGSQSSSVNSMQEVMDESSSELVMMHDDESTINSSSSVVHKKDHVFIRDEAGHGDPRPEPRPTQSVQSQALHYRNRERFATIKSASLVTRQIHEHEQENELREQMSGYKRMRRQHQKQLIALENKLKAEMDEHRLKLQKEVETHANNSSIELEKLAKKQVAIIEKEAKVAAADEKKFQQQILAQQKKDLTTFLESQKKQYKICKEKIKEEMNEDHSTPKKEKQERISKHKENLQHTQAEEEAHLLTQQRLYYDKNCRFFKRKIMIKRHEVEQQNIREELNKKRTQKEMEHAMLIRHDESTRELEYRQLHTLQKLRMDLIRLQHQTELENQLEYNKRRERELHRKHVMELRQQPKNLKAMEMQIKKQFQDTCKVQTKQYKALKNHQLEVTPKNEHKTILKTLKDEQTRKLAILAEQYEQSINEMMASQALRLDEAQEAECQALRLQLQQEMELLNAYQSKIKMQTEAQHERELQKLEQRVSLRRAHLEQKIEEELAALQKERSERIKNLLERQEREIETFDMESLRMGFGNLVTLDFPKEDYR
Source text: as §1, §2

T1 sequence (O14578 whole entry): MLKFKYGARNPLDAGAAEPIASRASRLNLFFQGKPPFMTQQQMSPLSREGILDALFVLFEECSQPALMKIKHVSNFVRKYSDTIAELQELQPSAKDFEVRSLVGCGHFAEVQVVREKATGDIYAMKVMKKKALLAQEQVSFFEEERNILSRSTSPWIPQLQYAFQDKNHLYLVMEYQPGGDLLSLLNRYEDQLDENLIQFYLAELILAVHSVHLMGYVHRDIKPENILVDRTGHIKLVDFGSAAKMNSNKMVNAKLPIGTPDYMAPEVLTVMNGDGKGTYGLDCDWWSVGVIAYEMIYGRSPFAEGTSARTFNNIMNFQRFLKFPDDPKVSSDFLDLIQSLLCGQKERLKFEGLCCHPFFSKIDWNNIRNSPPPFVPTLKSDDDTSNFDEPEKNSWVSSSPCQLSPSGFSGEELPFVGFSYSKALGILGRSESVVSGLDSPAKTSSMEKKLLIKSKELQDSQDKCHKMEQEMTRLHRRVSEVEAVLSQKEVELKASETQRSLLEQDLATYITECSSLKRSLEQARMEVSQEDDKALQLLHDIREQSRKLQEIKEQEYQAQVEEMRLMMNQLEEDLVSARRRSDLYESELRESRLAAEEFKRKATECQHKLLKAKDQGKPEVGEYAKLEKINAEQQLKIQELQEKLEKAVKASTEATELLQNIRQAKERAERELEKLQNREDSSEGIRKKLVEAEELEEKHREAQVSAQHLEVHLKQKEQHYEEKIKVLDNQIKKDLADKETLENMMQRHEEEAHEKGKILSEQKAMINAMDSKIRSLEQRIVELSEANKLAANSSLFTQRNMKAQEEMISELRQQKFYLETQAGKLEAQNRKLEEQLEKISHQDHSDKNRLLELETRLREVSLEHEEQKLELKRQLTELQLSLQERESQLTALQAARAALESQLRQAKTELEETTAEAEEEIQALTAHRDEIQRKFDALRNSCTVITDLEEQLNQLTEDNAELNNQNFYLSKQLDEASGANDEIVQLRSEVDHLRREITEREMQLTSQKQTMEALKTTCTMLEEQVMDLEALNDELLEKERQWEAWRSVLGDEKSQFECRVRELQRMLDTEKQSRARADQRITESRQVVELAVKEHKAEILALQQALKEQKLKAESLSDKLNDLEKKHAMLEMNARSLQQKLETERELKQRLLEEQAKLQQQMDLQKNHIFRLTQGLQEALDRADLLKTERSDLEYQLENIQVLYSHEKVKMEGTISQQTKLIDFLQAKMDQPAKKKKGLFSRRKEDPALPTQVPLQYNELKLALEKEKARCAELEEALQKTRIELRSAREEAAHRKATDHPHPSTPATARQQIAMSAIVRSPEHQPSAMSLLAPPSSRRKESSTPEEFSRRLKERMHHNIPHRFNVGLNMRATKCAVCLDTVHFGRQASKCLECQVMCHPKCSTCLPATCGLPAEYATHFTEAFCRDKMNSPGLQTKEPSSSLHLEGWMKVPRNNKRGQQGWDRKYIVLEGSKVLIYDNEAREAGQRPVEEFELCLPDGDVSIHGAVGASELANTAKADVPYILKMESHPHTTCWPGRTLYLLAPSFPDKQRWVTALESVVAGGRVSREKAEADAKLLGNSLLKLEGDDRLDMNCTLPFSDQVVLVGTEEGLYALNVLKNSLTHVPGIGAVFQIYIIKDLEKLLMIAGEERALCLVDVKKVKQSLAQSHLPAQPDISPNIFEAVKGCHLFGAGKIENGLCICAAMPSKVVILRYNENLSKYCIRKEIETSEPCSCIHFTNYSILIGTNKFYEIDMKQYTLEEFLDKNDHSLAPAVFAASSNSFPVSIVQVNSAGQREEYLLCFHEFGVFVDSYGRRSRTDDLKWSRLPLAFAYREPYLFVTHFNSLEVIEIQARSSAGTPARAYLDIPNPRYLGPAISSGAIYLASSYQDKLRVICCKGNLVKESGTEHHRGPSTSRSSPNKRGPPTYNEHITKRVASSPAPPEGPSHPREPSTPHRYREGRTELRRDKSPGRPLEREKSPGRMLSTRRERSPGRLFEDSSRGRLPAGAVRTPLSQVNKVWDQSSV

Structure (SMILES) | CIT (CRIK) % control at 1000nM / DiscoverX PoC value (CIT) [% control] | TAOK2 % control at 1000nM / DiscoverX PoC value (TAOK2) [% control] | kinase binding, percent of control at 1 µM (TAOK3; read-out: TAOK3 % control at 1000nM) [%] | TAOK3 % control at 1000nM (TAOK3) [% control]
CC(C)(O)C#Cc1ccc2[nH]c3c(c2c1)-c1nc(N)ncc1CCC3 [AMG28, reference compound] | 1.3 | 3.5 | 1.8 | 
CC(C)(O)C#Cc1ccc2[nH]c3c(c2c1)-c1nc(N)ncc1CC3 [Compound 1] | 0 | 1.5 |  | 1.5
CC(C)(O)C#Cc1ccc2[nH]cc(-c3ccnc(N)n3)c2c1 [Compound 3] | 0 | 1.3 |  | 0.4
